# Results: US20230286973A1, “PROTEIN SECRETION INHIBITORS” (KEZAR LIFE SCIENCES, priority 2020, published 2023)
# Assays:
# [1] = test system: PD1-ss+10aa/Gaussia Luciferase; experiment: Dox-Induced PD1-ss-Gluc Assay; type: cell-based; conditions: 24 hr Dox induction; 293FRT/TO cells; read-out: 24 hr Dox Inducible PD1ssGluc 293FRT/TO: Mean IC50
# Method in brief: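 Stable Flp-In 293 T-REx cells carried a doxycycline-inducible construct of Gaussia luciferase fused to the PD1 signal sequence plus 10 amino acids. Cells were plated the day before, then treated with compound dilutions in DMSO/media containing doxycycline at 37 °C, 5% CO2.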
# [2] = test system: TNFα-FL/Gaussia Luciferase; experiment: Dox Induced TNFα-FL-Gluc Assay; type: cell-based; conditions: for IC50: 24 hr Dox induction, 293FRT/TO cells, read-out: 24 hr Dox Inducible TNFaFLGluc 293FRT/TO: Mean IC50; for 24 hr Dox Inducible TNFaFLGluc 293FRT/TO: TNF/PD1: ratio of TNFaFLGluc IC50 to PD1ssGluc IC50
# Method in brief: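 Flp-In 293 T-REx cells stably expressing full-length TNFα (aa 1-233) fused at its C-terminus to Gaussia luciferase under tetracycline-regulated control were plated the day before assay. Compound dilutions in DMSO/media containing doxycycline were added and incubated at 37 °C, 5% CO2. Unspecified stereochemistry denotes stereoisomer mixtures.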
# [3] = test system: HER3-ss+4aa/Gaussia Luciferase; experiment: Dox-Induced Her3-ss-Gluc Assay; type: cell-based; conditions: 24 hr Dox induction; 293FRT/TO cells; read-out: 24 hr Dox Inducible Her3(ss + 4)Gluc 293FRT/TO: Mean IC50
# Method in brief: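 Stable Flp-In 293 T-REx line expressing Gaussia luciferase fused to the HER3 signal sequence plus 4 amino acids under tetracycline-regulated (T-REx) control. Cells plated the day before, then treated with compound dilutions in DMSO/media containing doxycycline and incubated at 37° C., 5% CO2.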
# [4] = test system: IL-2-FL/Gaussia Luciferase; experiment: Dox Induced IL2-FL-Gluc Assay; type: cell-based; conditions: for IC50: 24 hr Dox induction, 293FRT/TO cells, read-out: 24 hr Dox Inducible IL2FLGluc 293FRT/TO: Mean IC50; for 24 hr Dox Inducible IL2FLGluc 293FRT/TO: IL2/PD1: ratio of IL2FLGluc IC50 to PD1ssGluc IC50
# Method in brief: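 Flp-In 293 T-REx cells stably carrying doxycycline-inducible full-length IL-2 (aa 1-153) fused at its C-terminus to Gaussia luciferase, selected with hygromycin and blasticidin. Cells were plated the day before, then treated with compounds in DMSO/media containing doxycycline at 37° C, 5% CO2.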
# [5] = test system: multiple myeloma cell line NCI-H929; experiment: H929 Cell Viability Assay; type: cell-based, human; conditions: Homo sapiens, NCI-H929, 48 h, NCI-H929 cells, Celltiter-Glo
# Method in brief: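 NCI-H929 cells, resuspended in RPMI 1640 with 10% FBS and 2 mM glutamine, were treated with compound dilutions in DMSO/media and incubated 48 hours at 37° C, 5% CO2. Viability was read by CellTiter-Glo luminescence. Compounds drawn without stereochemistry were tested as stereoisomer mixtures.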
# [6] = test system: multiple myeloma cell line U266B1; experiment: U266 Cell Viability Assay; type: cell-based, human; conditions: Homo sapiens, U-266, 48 h, U266B1 cells, Celltiter-Glo
# Method in brief: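 Cells grown in RPMI 1640 with 10% FBS, 2 mM glutamine and penicillin/streptomycin were exposed to compound dilutions in DMSO/media for 48 hours at 37° C., 5% CO2. Viability was read by CellTiter-Glo luminescence. Undefined stereocentres mean data for stereoisomer mixtures.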
# [7] = Liver Microsome Stability Assay (rat); conditions: rat liver microsomes, with NADPH, 1.0 uM compound
# Experimental: (§1) Stability of a compound was assessed in the presence of liver microsomes from various sources—mouse, rat, monkey and human liver microsomes. 1.0 uM compound, 0.4% DMSO in 0.1 M Potassium Phosphate with 1.0 mg/mL liver microsomes, were incubated at 37° C. with or without 1 mM NADPH. The samples were quenched at 0, and 30 minutes.
# [8] = Liver Microsome Stability Assay (mouse); conditions: mouse liver microsomes, with NADPH, 1.0 uM compound
# Experimental: as §1
# [9] = Liver Microsome Stability Assay (human); conditions: human liver microsomes, with NADPH, 1.0 uM compound
# Experimental: as §1
# [10] = Liver Microsome Stability Assay (monkey); conditions: monkey liver microsomes, with NADPH, 1.0 uM compound
# Experimental: as §1
Structure (SMILES),IC50 [1] [nM],IC50 [2] [nM],IC50 [3] [nM],IC50 [4] [nM],EC50 [5] [nM],EC50 [6] [nM],Liver Microsome Stability (Multiple Species): Rat - % Remaining after 30 min w/NADPH [7] [%],Liver Microsome Stability (Multiple Species): Mouse - % Remaining after 30 min w/NADPH [8] [%],Liver Microsome Stability (Multiple Species): Human - % Remaining after 30 min w/NADPH [9] [%],Liver Microsome Stability (Multiple Species): Monkey - % Remaining after 30 min w/NADPH [10] [%],24 hr Dox Inducible TNFaFLGluc 293FRT/TO: TNF/PD1 [2],24 hr Dox Inducible IL2FLGluc 293FRT/TO: IL2/PD1 [4]
"CNCCOc1ccc(N2CCC[C@@H]2c2csc(NC(=O)c3cccn3Cc3ccnc(F)c3)n2)cc1 [Compound A103, (R)-1-((2-fluoropyridin-4-yl)methyl)-N-(4-(1-(4-(2-(methylamino)ethoxy)phenyl)pyrrolidin-2-yl)thiazol-2-yl)-1H-pyrrole-2-carboxamide]",296,8640,670,843,4040,5660,28.3,55,67,47.2,29.2,2.9
"CN(C)CCOc1ccc(N2CCC[C@@H]2c2csc(NC(=O)c3cccn3Cc3ccnc(F)c3)n2)cc1 [Compound A104, (R)-N-(4-(1-(4-(2-(dimethylamino)ethoxy)phenyl)pyrrolidin-2-yl)thiazol-2-yl)-1-((2-fluoropyridin-4-yl)methyl)-1H-pyrrole-2-carboxamide]",153,4030,355,435,3170,5760,27.9,16.5,68.8,51.6,26.3,2.8
"CC(=O)N1CCC(Oc2cc(F)c(N3CCC[C@@H]3c3csc(NC(=O)c4cccn4Cc4ccnc(F)c4)n3)c(F)c2)CC1 [Compound A105, (R)-N-(4-(1-(4-((1-acetylpiperidin-4-yl)oxy)-2,6-difluorophenyl)pyrrolidin-2-yl)thiazol-2-yl)-1-((2-fluoropyridin-4-yl)methyl)-1H-pyrrole-2-carboxamide]",53.6,524,91.7,65.8,1030,> 25000,16.9,1.29,0.87,0.98,9.81,1.2
"O=C(Nc1nc([C@H]2CCCN2c2ccc(OC3CCNCC3F)cc2)cs1)c1cccn1Cc1ccnc(F)c1 (stereo partly drawn) [Compound A107, N-(4-((2R)-1-(4-((3-fluoropiperidin-4-yl)oxy)phenyl)pyrrolidin-2-yl)thiazol-2-yl)-1-((2-fluoropyridin-4-yl)methyl)-1H-pyrrole-2-carboxamide]",205,2910,322,462,4550,7280,64.6,6,23.1,12.7,14.2,2.3
"CC(=O)N1CCC(Oc2ccc(N3CCC[C@@H]3c3csc(NC(=O)c4cccn4Cc4ccnc(F)c4)n3)cc2)C(F)C1 (stereo partly drawn) [Compound A108, N-(4-((2R)-1-(4-((1-acetyl-3-fluoropiperidin-4-yl)oxy)phenyl)pyrrolidin-2-yl)thiazol-2-yl)-1-((2-fluoropyridin-4-yl)methyl)-1H-pyrrole-2-carboxamide]",33.7,283,72.9,71.2,1280,> 25000,39,17,13.2,0.49,8.39,2.1

# These reach a lower IC50 [1]. Values come first.
IC50 [1] [nM],IC50 [2] [nM],IC50 [3] [nM],IC50 [4] [nM],EC50 [5] [nM],EC50 [6] [nM],Liver Microsome Stability (Multiple Species): Rat - % Remaining after 30 min w/NADPH [7] [%],Liver Microsome Stability (Multiple Species): Mouse - % Remaining after 30 min w/NADPH [8] [%],Liver Microsome Stability (Multiple Species): Human - % Remaining after 30 min w/NADPH [9] [%],Liver Microsome Stability (Multiple Species): Monkey - % Remaining after 30 min w/NADPH [10] [%],Structure (SMILES),24 hr Dox Inducible TNFaFLGluc 293FRT/TO: TNF/PD1 [2],24 hr Dox Inducible IL2FLGluc 293FRT/TO: IL2/PD1 [4]
15,121,16.9,27.5,317,> 25000,19.7,7.68,8.26,1.22,"CC(=O)N1CCC(Oc2ccc(N3CCC[C@@H]3c3csc(NC(=O)c4cccn4Cc4ccnc(F)c4)n3)cc2F)CC1 [Compound A102, (R)-N-(4-(1-(4-((1-acetylpiperidin-4-yl)oxy)-3-fluorophenyl)pyrrolidin-2-yl)thiazol-2-yl)-1-((2-fluoropyridin-4-yl)methyl)-1H-pyrrole-2-carboxamide]",8.11,1.8
16.3,120,15.6,26.2,472,> 25000,3.12,1.43,2.95,0.35,"CC(=O)N1CCC(Oc2c(F)cc(N3CCC[C@@H]3c3csc(NC(=O)c4cccn4Cc4ccnc(F)c4)n3)cc2F)CC1 [Compound A106, (R)-N-(4-(1-(4-((1-acetylpiperidin-4-yl)oxy)-3,5-difluorophenyl)pyrrolidin-2-yl)thiazol-2-yl)-1-((2-fluoropyridin-4-yl)methyl)-1H-pyrrole-2-carboxamide]",7.32,1.6
31,302,39.2,90.7,1230,> 25000,55.6,21,13.8,2.02,"O=C(Nc1nc([C@H]2CCCN2c2ccc(OC3CN(C(=O)C4CC4)C3)cc2)cs1)c1cccn1Cc1ccnc(F)c1 [Compound A109, (R)-N-(4-(1-(4-((1-(cyclopropanecarbonyl)azetidin-3-yl)oxy)phenyl)pyrrolidin-2-yl)thiazol-2-yl)-1-((2-fluoropyridin-4-yl)methyl)-1H-pyrrole-2-carboxamide]",9.75,2.9
